From patent US20220177466A1, “DEGRADERS OF KELCH-LIKE ECH-ASSOCIATED PROTEIN 1 (KEAP1)” (DANA-FARBER CANCER INSTITUTE, INC., priority 2019, published 2022)

Assays:
Assay type in all cases: cell-based
KEAP1 [1] = molecular target: T1, KEAP1 (Homo sapiens, UniProt Q14145); test: Rescue of degrader-induced KEAP1 degradation by pretreatment in MM.1S cells, immunoblot; conditions: pretreatment 2 h (10 μM DGY-03-118, 10 μM Lenalidomide, 0.5 μM Bortezomib, 1 μM MLN4924); for rescue of the KEAP1 degradation induced by compound 1: then 5 μM compound 1 for 2 h, FIG. 4A; for rescue of the KEAP1 degradation induced by compound 4: then 5 μM compound 4 for 2 h, FIG. 4B
T1 construct: endogenous in cells; host or cells: MM.1S cells
Method: (§1) MM.1S cells were treated with 0, 0.1 μM, 1 μM, or 10 μM of compound 1 or compound 4 or 0.25 μM THAL-SNS-032 (a known CDK9 degrader, as a positive control for CDK9 degradation) for 16 hours. Cells were then lysed in RIPA buffer (Sigma) containing protease/phosphatase inhibitor cocktail (Roche). The protein concentrations were measured by bicinchoninic acid assay (BCA) analysis (Pierce™). Equal amounts of protein were resolved by 4-12% Tris-Base gels (Invitrogen), and then transferred to the Immuno-Blot polyvinylidene difluoride (PVDF) membrane (BioRad), and immunoblotted with primary antibodies against KEAP1 (cell signaling), CRBN (cell signaling), CDK9 (cell signaling) and R-Actin (cell signaling), and then immunoblotted with IRDye® 800-labeled goat anti-rabbit IgG and IRDye®800-labeled goat anti-mouse IgG (LI-COR) secondary antibodies. The membranes were detected on Odyssey CLx system.
(§2) MM.1S cells were pretreated with 10 μM DGY-03-118 (the parental compound and known KEAP1 inhibitor), 10 μM Lenalidomide (CRBN ligand), 0.5 μM Bortezomib (a proteasome inhibitor) and 1 μM MLN4924 (a neddylation inhibitor) for 2 h, and then treated with 5 μM compound 1 for 2 h. Cells were lysed and immunoblotted as described above with antibodies to KEAP1 and β-Actin.
as §2, with “compound 4” for “compound 1”

IKZF3 = molecular target: T2, IKZF3 (Homo sapiens, UniProt Q9UKT9); test: Off-target degradation in MM.1S cells, immunoblot: IKZF3; conditions: 5 μM, up to 6 h, FIG. 2
T2 construct: endogenous in cells; host or cells: MM.1S cells
Method: as §1
(§3) MM.1S cells were treated with 0 or 5 μM compound 1 or compound 4 for 0, 2, 4, or 6 h. Cells were lysed and immunoblotted as described above with antibodies to KEAP1 (cell signaling), CRBN (cell signaling), IKZF1 (cell signaling), IKZF3 (cell signaling), GSPT1 (abcam) and R-Actin (cell signaling).

KEAP1 [2] = molecular target: T1, KEAP1; test: Knockdown of KEAP1 in MM.1S cells, immunoblot, concentration series, 16 h; conditions: 0.1 μM, 1 μM or 10 μM, FIG. 1
Method: as §1

KEAP1 [3] = molecular target: T1, KEAP1; test: KEAP1 degradation in wild-type (WT) MM.1S cells, immunoblot; conditions: 5 μM, 0, 2, 4 or 6 h, FIG. 3
Method: as §1
(§4) Wild-type (WT) (left panel) or CRBN−/− (right panel) MM.1 S cells were treated with 0 or 5 μM compound 1 or compound 4 for 0, 2, 4, or 6 h. Cells were lysed and immunoblotted as described above with antibodies to KEAP1 (cell signaling) and R-Actin (cell signaling).

GSPT1 = molecular target: T3, GSPT1 (Homo sapiens, UniProt P15170); test: Off-target degradation in MM.1S cells, immunoblot: GSPT1; conditions: 5 μM, up to 6 h, FIG. 2
T3 construct: endogenous in cells; host or cells: MM.1S cells
Method: as §1, §3

KEAP1 [4] = molecular target: T1, KEAP1; test: KEAP1 degradation in CRBN−/− MM.1S cells, immunoblot; conditions: 5 μM, 0, 2, 4 or 6 h, FIG. 3
Method: as §1, §4

KEAP1 [5] = molecular target: T1, KEAP1; test: KEAP1 levels after washout in MM.1S cells, immunoblot; conditions: 5 μM for 2 h, washout at 2, 4, 7 and 24 hours, FIG. 5A/5B
Method: as §1
MM.1S cells were treated with 0 or 5 μM compound 1 for 2 h, followed by washout at 2, 4, 7, and 24 hours. Cells were lysed and immunoblotted as described above with antibodies to KEAP1 and β-Actin.
MM.1S cells were treated with 0 or 5 μM compound 4 for 2 h, followed by washout at 2, 4, 7, and 24 hours. Cells were lysed and immunoblotted as described above with antibodies to KEAP1 and β-Actin.

IKZF1 = molecular target: T4, IKZF1 (Homo sapiens, UniProt Q13422); test: Off-target degradation in MM.1S cells, immunoblot: IKZF1; conditions: 5 μM, up to 6 h, FIG. 2
T4 construct: endogenous in cells; host or cells: MM.1S cells
Method: as §1, §3

CDK9 = molecular target: T5, CDK9 (Homo sapiens, UniProt P50750+Q96SW2); test: CDK9 degradation in MM.1S cells, immunoblot (positive control); conditions: 0.25 μM, 16 hours, FIG. 1
T5 construct: endogenous in cells; host or cells: MM.1S cells
Method: as §1

T1 sequence (Q14145 whole entry): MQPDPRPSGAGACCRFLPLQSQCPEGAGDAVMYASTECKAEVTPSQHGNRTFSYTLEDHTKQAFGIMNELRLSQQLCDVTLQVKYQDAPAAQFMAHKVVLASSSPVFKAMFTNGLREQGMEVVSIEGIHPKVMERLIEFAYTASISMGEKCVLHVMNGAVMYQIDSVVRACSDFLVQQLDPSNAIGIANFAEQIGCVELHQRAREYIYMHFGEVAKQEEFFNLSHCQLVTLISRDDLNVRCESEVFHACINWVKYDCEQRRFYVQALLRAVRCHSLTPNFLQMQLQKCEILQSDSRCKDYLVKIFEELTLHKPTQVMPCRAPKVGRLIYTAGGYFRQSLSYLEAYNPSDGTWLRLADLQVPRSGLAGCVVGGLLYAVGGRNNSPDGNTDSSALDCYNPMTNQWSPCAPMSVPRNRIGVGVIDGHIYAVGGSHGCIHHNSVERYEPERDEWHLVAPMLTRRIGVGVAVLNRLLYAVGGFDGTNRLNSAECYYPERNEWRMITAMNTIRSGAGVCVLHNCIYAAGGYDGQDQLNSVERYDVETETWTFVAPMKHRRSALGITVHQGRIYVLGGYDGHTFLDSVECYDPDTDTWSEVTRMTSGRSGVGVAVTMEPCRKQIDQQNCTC
T4 sequence (Q96SW2 whole entry partner): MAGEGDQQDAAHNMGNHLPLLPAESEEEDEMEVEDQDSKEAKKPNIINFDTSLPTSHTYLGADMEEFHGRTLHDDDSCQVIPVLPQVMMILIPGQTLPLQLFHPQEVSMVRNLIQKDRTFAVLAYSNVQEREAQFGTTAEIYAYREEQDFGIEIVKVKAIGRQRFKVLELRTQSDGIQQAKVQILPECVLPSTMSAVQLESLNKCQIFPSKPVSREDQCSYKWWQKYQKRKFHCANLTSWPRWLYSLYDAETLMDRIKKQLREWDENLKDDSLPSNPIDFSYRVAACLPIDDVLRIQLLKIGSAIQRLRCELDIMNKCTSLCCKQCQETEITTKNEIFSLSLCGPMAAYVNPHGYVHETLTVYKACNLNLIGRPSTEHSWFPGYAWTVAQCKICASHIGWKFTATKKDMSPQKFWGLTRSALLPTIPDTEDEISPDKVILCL
T4 sequence (Q16531 whole entry partner): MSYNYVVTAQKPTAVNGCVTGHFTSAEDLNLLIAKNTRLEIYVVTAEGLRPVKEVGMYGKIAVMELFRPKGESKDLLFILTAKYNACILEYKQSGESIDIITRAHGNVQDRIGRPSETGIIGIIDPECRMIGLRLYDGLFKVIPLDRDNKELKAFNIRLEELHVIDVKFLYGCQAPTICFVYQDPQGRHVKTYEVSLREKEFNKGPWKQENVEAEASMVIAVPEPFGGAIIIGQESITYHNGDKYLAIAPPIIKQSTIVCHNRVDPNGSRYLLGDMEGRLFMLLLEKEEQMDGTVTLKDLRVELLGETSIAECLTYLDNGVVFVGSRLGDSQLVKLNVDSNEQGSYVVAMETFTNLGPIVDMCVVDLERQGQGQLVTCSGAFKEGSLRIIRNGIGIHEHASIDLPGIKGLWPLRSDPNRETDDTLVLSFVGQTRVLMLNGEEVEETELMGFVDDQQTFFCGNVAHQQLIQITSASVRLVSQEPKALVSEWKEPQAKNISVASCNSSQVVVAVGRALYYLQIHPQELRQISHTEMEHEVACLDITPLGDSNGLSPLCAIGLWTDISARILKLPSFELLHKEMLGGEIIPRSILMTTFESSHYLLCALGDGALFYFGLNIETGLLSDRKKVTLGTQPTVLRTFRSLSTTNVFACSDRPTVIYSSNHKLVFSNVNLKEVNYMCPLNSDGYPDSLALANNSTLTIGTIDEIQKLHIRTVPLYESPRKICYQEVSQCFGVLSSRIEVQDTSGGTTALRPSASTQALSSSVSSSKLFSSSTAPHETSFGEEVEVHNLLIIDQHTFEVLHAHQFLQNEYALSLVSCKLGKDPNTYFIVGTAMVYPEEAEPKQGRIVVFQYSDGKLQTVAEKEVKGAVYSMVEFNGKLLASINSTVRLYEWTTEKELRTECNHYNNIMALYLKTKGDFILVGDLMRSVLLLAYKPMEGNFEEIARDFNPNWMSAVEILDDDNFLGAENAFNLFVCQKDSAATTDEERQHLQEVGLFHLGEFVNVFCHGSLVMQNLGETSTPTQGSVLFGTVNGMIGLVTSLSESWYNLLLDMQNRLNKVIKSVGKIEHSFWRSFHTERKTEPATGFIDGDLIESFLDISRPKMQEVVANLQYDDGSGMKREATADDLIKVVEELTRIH
T4 sequence (Q13422 whole entry): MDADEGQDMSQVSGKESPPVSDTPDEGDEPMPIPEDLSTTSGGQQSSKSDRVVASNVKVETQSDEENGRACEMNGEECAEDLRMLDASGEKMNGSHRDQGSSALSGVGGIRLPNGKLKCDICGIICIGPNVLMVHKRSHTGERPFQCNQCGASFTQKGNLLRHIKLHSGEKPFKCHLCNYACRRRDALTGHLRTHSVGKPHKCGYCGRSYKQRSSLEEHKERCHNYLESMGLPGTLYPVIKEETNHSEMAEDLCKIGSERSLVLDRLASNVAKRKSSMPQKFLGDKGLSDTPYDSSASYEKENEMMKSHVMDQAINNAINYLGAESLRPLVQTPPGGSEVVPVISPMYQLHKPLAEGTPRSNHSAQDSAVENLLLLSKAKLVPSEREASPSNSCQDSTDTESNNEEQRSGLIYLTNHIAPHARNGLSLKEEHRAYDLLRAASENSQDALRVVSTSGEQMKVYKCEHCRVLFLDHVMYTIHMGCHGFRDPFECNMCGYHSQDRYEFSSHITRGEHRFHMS
T3 sequence (Q96SW2 whole entry partner): as the sequence (Q96SW2 whole entry partner) above
T3 sequence (Q16531 whole entry partner): as the sequence (Q16531 whole entry partner) above
T3 sequence (P15170 whole entry): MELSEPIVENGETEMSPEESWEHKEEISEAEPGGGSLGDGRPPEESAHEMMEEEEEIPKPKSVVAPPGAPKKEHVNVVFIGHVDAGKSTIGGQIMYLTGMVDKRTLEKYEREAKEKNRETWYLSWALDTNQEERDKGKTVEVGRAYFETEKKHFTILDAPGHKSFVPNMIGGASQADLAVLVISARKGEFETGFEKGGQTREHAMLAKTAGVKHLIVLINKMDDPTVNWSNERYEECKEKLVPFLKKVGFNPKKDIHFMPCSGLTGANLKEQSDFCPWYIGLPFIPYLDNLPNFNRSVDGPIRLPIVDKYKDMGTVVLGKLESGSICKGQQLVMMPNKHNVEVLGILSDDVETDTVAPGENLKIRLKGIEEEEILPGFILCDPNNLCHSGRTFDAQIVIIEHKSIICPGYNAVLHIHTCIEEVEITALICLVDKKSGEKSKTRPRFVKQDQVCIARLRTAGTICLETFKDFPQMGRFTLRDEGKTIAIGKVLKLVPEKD
T2 sequence (Q96SW2 whole entry partner): as the sequence (Q96SW2 whole entry partner) above
T2 sequence (Q16531 whole entry partner): as the sequence (Q16531 whole entry partner) above
T2 sequence (Q9UKT9 whole entry): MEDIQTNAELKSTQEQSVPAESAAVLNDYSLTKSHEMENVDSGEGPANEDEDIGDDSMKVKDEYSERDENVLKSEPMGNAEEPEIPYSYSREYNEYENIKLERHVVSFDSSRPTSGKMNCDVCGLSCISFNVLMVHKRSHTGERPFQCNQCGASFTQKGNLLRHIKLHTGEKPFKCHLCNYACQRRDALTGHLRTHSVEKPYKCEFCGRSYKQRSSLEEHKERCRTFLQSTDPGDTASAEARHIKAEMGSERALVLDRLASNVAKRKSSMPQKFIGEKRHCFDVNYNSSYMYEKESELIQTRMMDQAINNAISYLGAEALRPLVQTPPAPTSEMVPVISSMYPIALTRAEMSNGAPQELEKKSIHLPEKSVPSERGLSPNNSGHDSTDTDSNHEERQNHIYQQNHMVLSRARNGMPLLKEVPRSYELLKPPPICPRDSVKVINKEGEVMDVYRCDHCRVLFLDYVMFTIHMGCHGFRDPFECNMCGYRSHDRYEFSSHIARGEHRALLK

Row | Compound | rescue of the KEAP1 degradation induced by compound 1 (KEAP1 [1]) | rescue of the KEAP1 degradation induced by compound 4 (KEAP1 [1]) | degradation of potential off target IKZF3 (IKZF3) | degradation of KEAP1 (KEAP1 [2]) | KEAP1 degradation in WT MM.1S cells (KEAP1 [3]) | degradation of potential off target GSPT1 (GSPT1) | KEAP1 degradation in CRBN−/− MM.1S cells (KEAP1 [4]) | KEAP1 levels after washout relative to vehicle-treated cells (KEAP1 [5]) | degradation of potential off target IKZF1 (IKZF1) | CDK9 degradation (CDK9)
1 | CC(C)C[C@H](NC(=O)[C@H](Cc1ccccc1)NC(=O)c1cnccn1)B(O)O [Bortezomib] | rescued the KEAP1 degradation | rescued the KEAP1 degradation | – | – | – | – | – | – | – | –
2 | COc1cc(C(CC(=O)O)c2ccc(C)c(CN3C[C@@H](C)Oc4cc(CCCCCCNC(=O)COc5cccc6c5C(=O)N(C5CCC(=O)NC5=O)C6=O)ccc4S3(=O)=O)c2)cc2nnn(C)c12 (stereo partly drawn) [compound 1, 3-(3-(((4R)-7-(6-(2-((2-(2,6-dioxopiperidin-3-yl)-1,3-dioxoisoindolin-4-yl)oxy)acetamido)hexyl)-4-methyl-1,1-dioxido-3,4-dihydro-2H-benzo[b][1,4,5]oxathiazepin-2-yl)methyl)-4-methylphenyl)-3-(7-methoxy-1-methyl-1H-benzo[d][1,2,3]triazol-5-yl)propanoic Acid] | – | – | did not induce the degradation | induced the degradation of KEAP1 | induced KEAP1 degradation | did not induce the degradation | did not induce KEAP1 degradation | remained below levels in vehicle-treated cells 4 h after washout | did not induce the degradation | –
3 | Nc1cccc2c1CN(C1CCC(=O)NC1=O)C2=O (stereo not drawn) [Lenalidomide] | rescued the KEAP1 degradation | rescued the KEAP1 degradation | – | – | – | – | – | – | – | –
4 | CC(C)(C)c1cnc(CSc2cnc(NC(=O)C3CCN(CC(=O)NCCOCCOCCOCCNc4cccc5c4C(=O)N(C4CCC(=O)NC4=O)C5=O)CC3)s2)o1 (stereo not drawn) [THAL-SNS-032] | – | – | – | – | – | – | – | – | – | induced CDK9 degradation
5 | NS(=O)(=O)OC[C@@H]1C[C@@H](n2ccc3c(N[C@H]4CCc5ccccc54)ncnc32)C[C@@H]1O [MLN4924] | rescued the KEAP1 degradation | rescued the KEAP1 degradation | – | – | – | – | – | – | – | –
6 | COc1cc(C(CC(=O)O)c2ccc(C)c(CN3C[C@@H](C)Oc4cc(CCCCCCNC(=O)COc5cc6c7c(cccc7c5)C(=O)N(C5CCC(=O)NC5=O)C6=O)ccc4S3(=O)=O)c2)cc2nnn(C)c12 (stereo partly drawn) [compound 4, 3-(3-(((4R)-7-(6-(2-((2-(2,6-dioxopiperidin-3-yl)-1,3-dioxo-2,3-dihydro-1H-benzo[de]isoquinolin-5-yl)oxy)acetamido)hexyl)-4-methyl-1,1-dioxido-3,4-dihydro-2H-benzo[b][1,4,5]oxathiazepin-2-yl)methyl)-4-methylphenyl)-3-(7-methoxy-1-methyl-1H-benzo[d][1,2,3]triazol-5-yl)propanoic Acid] | – | – | did not induce the degradation | induced the degradation of KEAP1 | induced KEAP1 degradation | did not induce the degradation | did not induce KEAP1 degradation | remained below levels in vehicle-treated cells even 24 h after washout | did not induce the degradation | –
